Results on 31 compounds are retold here after patent publication US6638973B2, “Taxane formulations” (FSU Research Foundation, Inc., priority 2000, dated 2003).

A value given as a limit tells only on which side of the number the result lay.

The subject of one assay is HCT116 cells. Put plainly: In vitro cytotoxicity measured by the cell colony formation assay. It is filed as cell-based. Particulars: HCT116 cells, 72 h drug incubation, colonies counted after 7 days; ID50 = drug concentration producing 50% inhibition of colony formation; read-out: IN VITRO ID 50 (nm) HCT116. In a few lines:
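Colony-forming survival was scored 7 days after a 72 h, 37 °C compound exposure followed by washout into fresh medium.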
Regarding `CC(=O)O[C@@]12CO[C@@H]1C[C@H](OC(=O)Nc1ccc(F)c(F)c1)[C@@]1(C)C(=O)[C@H](O)C3=C(C)[C@@H](OC(=O)[C@H](O)[C@@H](NC(=O)C=C(C)C)c4ccco4)C[C@@](O)([C@@H](OC(=O)c4ccccc4)C12)C3(C)C` (stereo partly shown) [Compound 5522], the IC50 was < 1 nM.

On to `CCC(C)(C)OC(=O)N[C@@H](c1ccco1)[C@@H](O)C(=O)O[C@H]1C[C@@]2(O)[C@@H](OC(=O)c3ccccc3)C3[C@](C)(C(=O)[C@H](O)C(=C1C)C2(C)C)[C@@H](OC(=O)Nc1ccccc1)C[C@H]1OC[C@@]31OC(C)=O` (stereo partly shown) [Compound 6399], for which the IC50 is < 10 nM.

Still in this assay, the particulars now being: HCT116 cells, 72 h incubation with drug, colonies counted after 7 days; ID50 = drug concentration producing 50% inhibition of colony formation; read-out: IN VITRO ID 50 (nm) HCT116.
On to `CCOC(=O)O[C@H]1C[C@H]2OC[C@@]2(OC(C)=O)C2[C@H](OC(=O)c3ccccc3)[C@]3(O)C[C@H](OC(=O)[C@H](O)[C@@H](NC(=O)OC(C)(C)C)C4CC4)C(C)=C([C@@H](O)C(=O)[C@@]21C)C3(C)C` (stereo partly shown) [Compound 5165], for which the IC50 is < 1 nM.

`CCOC(=O)O[C@H]1C[C@H]2OC[C@@]2(OC(C)=O)C2[C@H](OC(=O)c3ccccc3)[C@]3(O)C[C@H](OC(=O)[C@H](O)[C@@H](NC(=O)C=C(C)C)c4cccs4)C(C)=C([C@@H](O)C(=O)[C@@]21C)C3(C)C` (stereo partly shown) [Compound 4164]: the IC50 is < 1 nM.

Consider `CC=CC(=O)NC(c1ccoc1)C(O)C(=O)OC1CC2(O)C(OC(=O)c3ccccc3)C3C4(OC(C)=O)COC4CC(O)C3(C)C(=O)C(OC(=O)OCC)C(=C1C)C2(C)C` (stereo not shown) [Compound 4959], for which the IC50 is < 1 nM.

For the compound `CC=CC(=O)NC(c1ccco1)C(O)C(=O)OC1CC2(O)C(OC(=O)c3ccccc3)C3C4(OC(C)=O)COC4CC(O)C3(C)C(=O)C(OC(=O)OCC)C(=C1C)C2(C)C` (stereo not shown) [Compound 4000], the IC50 was < 1 nM.

The assay is the same for the next values; noted with them: HCT116 cells, colony formation, 72 h incubation with drug, colonies counted after 7 days; ID50 = drug concentration producing 50% inhibition of colony formation; read-out: IN VITRO ID 50 (nm) HCT116.
Turning to `CCNC(=O)O[C@H]1C(=O)[C@@]2(C)C([C@H](OC(=O)c3ccccc3)[C@]3(O)C[C@H](OC(=O)[C@H](O)[C@@H](NC(=O)OC(C)(C)C)c4ccsc4)C(C)=C1C3(C)C)[C@]1(OC(C)=O)CO[C@@H]1C[C@@H]2O` (stereo partly shown) [Compound 2622], the IC50 is < 1 nM.

As for `CCNC(=O)O[C@H]1C(=O)[C@@]2(C)C([C@H](OC(=O)c3ccccc3)[C@]3(O)C[C@H](OC(=O)[C@H](O)[C@H](C=C(C)C)NC(=O)OC(C)(C)C)C(C)=C1C3(C)C)[C@]1(OC(C)=O)CO[C@@H]1C[C@@H]2O` (stereo partly shown) [Compound 2686], the IC50 is < 1 nM.

The assay is the same for the next values; noted with them: HCT116 colony formation; 72 h drug incubation, colonies counted after 7 days; Example 5, C-7 ester/C-10 hydroxy taxanes; read-out: IN VITRO ID 50 (nm) HCT116.
In the case of `CCCC(=O)O[C@H]1C[C@H]2OC[C@@]2(OC(C)=O)C2[C@H](OC(=O)c3ccccc3)[C@]3(O)C[C@H](OC(=O)[C@H](O)[C@@H](NC(=O)OCC(C)C)c4ccsc4)C(C)=C([C@@H](O)C(=O)[C@@]21C)C3(C)C` (stereo partly shown) [Compound 4600], the IC50 was < 10 nM.

Take `CCC(=O)O[C@H]1C[C@H]2OC[C@@]2(OC(C)=O)C2[C@H](OC(=O)c3ccccc3)[C@]3(O)C[C@H](OC(=O)[C@H](O)[C@@H](NC(=O)OC=C(C)C)c4ccco4)C(C)=C([C@@H](O)C(=O)[C@@]21C)C3(C)C` (stereo partly shown) [Compound 6171]: the IC50 is < 10 nM.

As for `CCC(=O)O[C@H]1C[C@H]2OC[C@@]2(OC(C)=O)C2[C@H](OC(=O)c3ccccc3)[C@]3(O)C[C@H](OC(=O)[C@H](O)[C@@H](NC(=O)OCC(C)C)c4ccco4)C(C)=C([C@@H](O)C(=O)[C@@]21C)C3(C)C` (stereo partly shown) [Compound 3196], the IC50 was < 10 nM.

With `C/C=C/C(=O)N[C@@H](c1ccoc1)[C@@H](O)C(=O)O[C@H]1C[C@@]2(O)[C@@H](OC(=O)c3ccccc3)C3[C@](C)(C(=O)[C@H](O)C(=C1C)C2(C)C)[C@@H](OC(=O)CC)C[C@H]1OC[C@@]31OC(C)=O` (stereo partly shown) [Compound 4898], the IC50 is < 1 nM.

The same assay, now with this note: HCT116 colony formation; 72 h drug incubation, colonies counted after 7 days; Example 10, C-10 ester/C-7 hydroxy taxanes; read-out: IN VITRO ID 50 (nm) HCT116.
`C/C=C/C(=O)O[C@H]1C(=O)[C@@]2(C)C([C@H](OC(=O)c3ccccc3)[C@]3(O)C[C@H](OC(=O)[C@H](O)[C@@H](NC(=O)OC(C)(C)C)c4ccc([N+](=O)[O-])cc4)C(C)=C1C3(C)C)[C@]1(OC(C)=O)CO[C@@H]1C[C@@H]2O` (stereo partly shown) [Compound 2439]: the IC50 is < 10 nM.

In the case of `CCCC(=O)O[C@H]1C(=O)[C@@]2(C)C([C@H](OC(=O)c3ccccc3)[C@]3(O)C[C@H](OC(=O)[C@H](O)[C@@H](NC(=O)OC(C)C)c4ccco4)C(C)=C1C3(C)C)[C@]1(OC(C)=O)CO[C@@H]1C[C@@H]2O` (stereo partly shown) [Compound 3417], the IC50 was < 1 nM.

For `CC(=O)OC12COC1CC(O)C1(C)C(=O)C(OC(=O)c3cccs3)C3=C(C)C(OC(=O)C(O)C(NC(=O)OC(C)(C)C)c4ccccn4)CC(O)(C(OC(=O)c4ccccc4)C21)C3(C)C` (stereo not shown) [Compound 1883], the IC50 was < 10 nM.

Regarding `CC(=O)O[C@@]12CO[C@@H]1C[C@H](O)[C@@]1(C)C(=O)[C@H](OC(=O)C3CC3)C3=C(C)[C@@H](OC(=O)[C@H](O)[C@@H](NC(=O)OC(C)(C)C)C4CC4)C[C@@](O)([C@@H](OC(=O)c4ccccc4)C12)C3(C)C` (stereo partly shown) [Compound 0860], the IC50 is < 1 nM.

`CCC(=O)O[C@H]1C(=O)[C@@]2(C)C([C@H](OC(=O)c3ccccc3)[C@]3(O)C[C@H](OC(=O)[C@H](O)[C@@H](NC(=O)OC(C)(C)C)c4ccco4)C(C)=C1C3(C)C)[C@]1(OC(C)=O)CO[C@@H]1C[C@@H]2O` (stereo partly shown) [Compound 0536]: the IC50 was < 1 nM.

Regarding `C/C=C/C(=O)N[C@@H](c1ccoc1)[C@@H](O)C(=O)O[C@H]1C[C@@]2(O)[C@@H](OC(=O)c3ccccc3)C3[C@](C)(C(=O)[C@H](OC(=O)CC)C(=C1C)C2(C)C)[C@@H](O)C[C@H]1OC[C@@]31OC(C)=O` (stereo partly shown) [Compound 4888], the IC50 is < 1 nM.

As to `CC(=O)O[C@@]12CO[C@@H]1C[C@H](O)[C@@]1(C)C(=O)[C@H](OC(=O)C3CC3)C3=C(C)[C@@H](OC(=O)[C@H](O)[C@@H](NC(=O)C=C(C)C)c4cccs4)C[C@@](O)([C@@H](OC(=O)c4ccccc4)C12)C3(C)C` (stereo partly shown) [Compound 4329], the IC50 was < 1 nM.

Regarding `CC(=O)O[C@@]12CO[C@@H]1C[C@H](O)[C@@]1(C)C(=O)[C@H](OC(=O)C3CC3)C3=C(C)[C@@H](OC(=O)[C@H](O)[C@H](C=C(C)C)NC(=O)c4ccccc4)C[C@@](O)([C@@H](OC(=O)c4ccccc4)C12)C3(C)C` (stereo partly shown) [Compound 0890], the IC50 is < 1 nM.

Regarding `CCCC(=O)O[C@H]1C(=O)[C@@]2(C)C([C@H](OC(=O)c3ccccc3)[C@]3(O)C[C@H](OC(=O)[C@H](O)[C@@H](NC(=O)OC(C)(C)C)c4ccco4)C(C)=C1C3(C)C)[C@]1(OC(C)=O)CO[C@@H]1C[C@@H]2O` (stereo partly shown) [Compound 0983], the IC50 was < 1 nM.

As to `CC(=O)O[C@@]12CO[C@@H]1C[C@H](O)[C@@]1(C)C(=O)[C@H](OC(=O)C3CC3)C3=C(C)[C@@H](OC(=O)[C@H](O)[C@@H](NC(=O)c4ccccc4)c4ccccc4)C[C@@](O)([C@@H](OC(=O)c4ccccc4)C12)C3(C)C` (stereo partly shown) [Compound 0937], the IC50 is < 10 nM.

`CC(=O)O[C@@]12CO[C@@H]1C[C@H](O)[C@@]1(C)C(=O)[C@H](OC(=O)C=C(C)C)C3=C(C)[C@@H](OC(=O)[C@H](O)[C@@H](NC(=O)OC(C)(C)C)c4cccs4)C[C@@](O)([C@@H](OC(=O)c4ccccc4)C12)C3(C)C` (stereo partly shown) [Compound 2503]: the IC50 was < 1 nM.

`CCCC(=O)OC1C(=O)C2(C)C(O)CC3OCC3(OC(C)=O)C2C(OC(=O)c2ccccc2)C2(O)CC(OC(=O)C(O)C(NC(=O)OC(C)(C)C)C(C)C)C(C)=C1C2(C)C` (stereo not shown) [Compound 1031]: the IC50 is < 10 nM.

With `CCC(=O)O[C@H]1C(=O)[C@@]2(C)C([C@H](OC(=O)c3ccccc3)[C@]3(O)C[C@H](OC(=O)[C@H](O)[C@@H](NC(=O)OC(C)(C)C)c4ccsc4)C(C)=C1C3(C)C)[C@]1(OC(C)=O)CO[C@@H]1C[C@@H]2O` (stereo partly shown) [Compound 0562], the IC50 is < 1 nM.

As to `CCCC(=O)N[C@@H](c1cccs1)[C@@H](O)C(=O)O[C@H]1C[C@@]2(O)[C@@H](OC(=O)c3ccccc3)C3[C@](C)(C(=O)[C@H](OC(=O)CCC)C(=C1C)C2(C)C)[C@@H](O)C[C@H]1OC[C@@]31OC(C)=O` (stereo partly shown) [Compound 3148], the IC50 is < 1 nM.

As for `C/C=C/C(=O)O[C@H]1C(=O)[C@@]2(C)C([C@H](OC(=O)c3ccccc3)[C@]3(O)C[C@H](OC(=O)[C@H](O)[C@H](C=C(C)C)NC(=O)OC(C)(C)C)C(C)=C1C3(C)C)[C@]1(OC(C)=O)CO[C@@H]1C[C@@H]2O` (stereo partly shown) [Compound 2332], the IC50 was < 1 nM.

As for `CCCC(=O)O[C@H]1C(=O)[C@@]2(C)C([C@H](OC(=O)c3ccccc3)[C@]3(O)C[C@H](OC(=O)[C@H](O)[C@@H](NC(=O)C=C(C)C)c4cccs4)C(C)=C1C3(C)C)[C@]1(OC(C)=O)CO[C@@H]1C[C@@H]2O` (stereo partly shown) [Compound 4344], the IC50 was < 1 nM.

Take `CCC(=O)O[C@H]1C(=O)[C@@]2(C)C([C@H](OC(=O)c3ccccc3)[C@]3(O)C[C@H](OC(=O)[C@H](O)[C@H](C=C(C)C)NC(=O)c4ccccc4)C(C)=C1C3(C)C)[C@]1(OC(C)=O)CO[C@@H]1C[C@@H]2O` (stereo partly shown) [Compound 0625]: the IC50 is < 1 nM.

The same assay, now with this note: HCT116 colony formation; 72 h drug incubation, colonies counted after 7 days; Example 15, C-7 substituted acetate/C-10 hydroxy taxanes; read-out: IN VITRO ID 50 (nm) HCT116.
Take `CC(=O)OCC(=O)O[C@H]1C[C@H]2OC[C@@]2(OC(C)=O)C2[C@H](OC(=O)c3ccccc3)[C@]3(O)C[C@H](OC(=O)[C@H](O)[C@@H](NC(=O)OC(C)(C)C)c4ccco4)C(C)=C([C@@H](O)C(=O)[C@@]21C)C3(C)C` (stereo partly shown) [Compound 5622]: the IC50 is < 1 nM.

As to `CCC(C)(C)OC(=O)NC(c1ccco1)C(O)C(=O)OC1CC2(O)C(OC(=O)c3ccccc3)C3C4(OC(C)=O)COC4CC(OC(=O)COC)C3(C)C(=O)C(O)C(=C1C)C2(C)C` (stereo not shown) [Compound 6226, N-Debenzoyl-N-tert-amyloxycarbonyl-3′-desphenyl-3′-(2-furyl)-10-deacetyl-7-methoxyacetyl taxol], the IC50 is < 1 nM.
